Legend:
[1] = Cytotoxicity against human MT4 cells assessed as reduction in cell viability after 4 to 5 days by Cell-Titer Glo assay; assay type: cell-based; conditions: MT4 cells
Ebolavirus [2] = test: Antiviral activity against Ebolavirus Kikwit infected in human macrophages preincubated with cells for 2 hrs followed by viral infection measured after 48 hrs; assay type: functional; conditions: Orthoebolavirus, Kikwit
Ebolavirus [3] = test: Antiviral activity against GFP-fused Ebolavirus infected in TERT-immortalized HMVEC assessed as reduction in viral replication preincubated with cells followed by viral infection measured after 3 to 4 days by fluorescence assay; assay type: functional; conditions: Orthoebolavirus, HMVEC
Ebolavirus [4] = test: Antiviral activity against Ebolavirus Kikwit infected in human HeLa cells assessed as reduction in viral glycoprotein levels preincubated with cells for 2 hrs followed by viral infection measured after 48 hrs by immunostaining based assay; assay type: functional, cell-based; conditions: Orthoebolavirus, Kikwit, HeLa
[5] = Half life in human plasma at 2 uM by LC/MS/MS analysis; assay type: ADME, cell-free
[6] = Lipophilicity, log D of the compound after 30 mins by HPLC/UV method; assay type: physicochemical
[7] = molecular target: T1, DNA-directed RNA polymerase, mitochondrial (Homo sapiens, UniProt O00411); test: Inhibition of human mitochondrial RNA polymerase after 30 mins in presence of [33P]GTP
[8] = Inhibition of Respiratory syncytial virus A2 RNA-dependent-RNA polymerase assessed as reduction in RNP transcriptional activity after 90 mins in presence of [gamma-32P]ATP by agarose gel based phosphorimaging assay; set-up: species or system Human respiratory syncytial virus A2
[9] = Drug level in TERT-immortalized HMVEC treated with (2S)-2-ethylbutyl 2-((((2R,3S,4R,5R)-5-(4-aminopyrrolo[1,2-f][1,2,4]triazin-7-yl)-5-cyano-3,4-dihydroxytetrahydrofuran-2-yl)methoxy)(phenoxy)phosphorylamino)propanoate at 1 uM after 2 to 72 hrs; assay type: ADME, cell-based; conditions: human
[10] = Inhibition of recombinant human DNA polymerase gamma preincubated with enzyme followed by addition of dATP/dGTP/TTP as substrate in presence of […] by phosphorimaging assay
[11] = molecular target: T1, DNA-directed RNA polymerase, mitochondrial; test: Inhibition of human mitochondrial RNA polymerase assessed as single nucleotide incorporation rate in presence of 5'-[32P]-R12/D18 as primer/template by PAGE based phosphorimaging assay; set-up: scale not given: the % may be the effect or the level left
[12] = Inhibition of RNA polymerase 2 in human HeLa cells preincubated for 5 mins with […] as substrate followed by addition of cell extract measured after 1 hr by SDS-PAGE method
Macrophage = test: Drug level in human macrophages treated with (2S)-2-ethylbutyl 2-((((2R,3S,4R,5R)-5-(4-aminopyrrolo[1,2-f][1,2,4]triazin-7-yl)-5-cyano-3,4-dihydroxytetrahydrofuran-2-yl)methoxy)(phenoxy)phosphorylamino)propanoate at 1 uM after 2 to 72 hrs; assay type: ADME, cell-based
[13] = Inhibition of Hepatitis C virus genotype 1b NS5B RNA-dependent-RNA polymerase preincubated for 5 mins followed by [alpha-33P]GTP addition measured after 90 mins by phosphorimaging assay; set-up: species or system Hepatitis C virus subtype 1b
[14] = Drug level in human HeLa cells treated with (2S)-2-ethylbutyl 2-((((2R,3S,4R,5R)-5-(4-aminopyrrolo[1,2-f][1,2,4]triazin-7-yl)-5-cyano-3,4-dihydroxytetrahydrofuran-2-yl)methoxy)(phenoxy)phosphorylamino)propanoate at 1 uM after 2 to 72 hrs; assay type: ADME, cell-based
DNA polymerase beta = DNA polymerase beta (Homo sapiens, UniProt P06746); test: Inhibition of recombinant human DNA polymerase beta preincubated with enzyme followed by addition of dATP/dGTP/TTP as substrate in presence of […] by phosphorimaging assay
[15] = Inhibition of recombinant human DNA polymerase gamma assessed as single nucleotide incorporation rate after 5 to 90 mins in presence of [32P]-D19/D36 as primer/template by PAGE based phosphorimaging assay; set-up: scale not given: the % may be the effect or the level left
PBMC = test: Drug level in rhesus monkey PBMC treated with (S)-2-Ethylbutyl 2-(((S)-(((2R,3S,4R,5R)-5-(4-Aminopyrrolo-[2,1-f][1,2,4]triazin-7-yl)-5-cyano-3,4-dihydroxytetrahydrofuran-2-yl)methoxy)(phenoxy)phosphoryl)amino)propanoate at 10 mg/kg, iv administered as single bolus dose up to 2 hrs; assay type: ADME, organism-based, Macaca mulatta; conditions: in vivo
[16] = molecular target: T2, DNA polymerase alpha catalytic subunit (Homo sapiens, UniProt P09884); test: Inhibition of recombinant human DNA polymerase alpha preincubated with enzyme followed by addition of dATP/dGTP/TTP as substrate in presence of […] by phosphorimaging assay
T2 sequence (P09884 whole entry): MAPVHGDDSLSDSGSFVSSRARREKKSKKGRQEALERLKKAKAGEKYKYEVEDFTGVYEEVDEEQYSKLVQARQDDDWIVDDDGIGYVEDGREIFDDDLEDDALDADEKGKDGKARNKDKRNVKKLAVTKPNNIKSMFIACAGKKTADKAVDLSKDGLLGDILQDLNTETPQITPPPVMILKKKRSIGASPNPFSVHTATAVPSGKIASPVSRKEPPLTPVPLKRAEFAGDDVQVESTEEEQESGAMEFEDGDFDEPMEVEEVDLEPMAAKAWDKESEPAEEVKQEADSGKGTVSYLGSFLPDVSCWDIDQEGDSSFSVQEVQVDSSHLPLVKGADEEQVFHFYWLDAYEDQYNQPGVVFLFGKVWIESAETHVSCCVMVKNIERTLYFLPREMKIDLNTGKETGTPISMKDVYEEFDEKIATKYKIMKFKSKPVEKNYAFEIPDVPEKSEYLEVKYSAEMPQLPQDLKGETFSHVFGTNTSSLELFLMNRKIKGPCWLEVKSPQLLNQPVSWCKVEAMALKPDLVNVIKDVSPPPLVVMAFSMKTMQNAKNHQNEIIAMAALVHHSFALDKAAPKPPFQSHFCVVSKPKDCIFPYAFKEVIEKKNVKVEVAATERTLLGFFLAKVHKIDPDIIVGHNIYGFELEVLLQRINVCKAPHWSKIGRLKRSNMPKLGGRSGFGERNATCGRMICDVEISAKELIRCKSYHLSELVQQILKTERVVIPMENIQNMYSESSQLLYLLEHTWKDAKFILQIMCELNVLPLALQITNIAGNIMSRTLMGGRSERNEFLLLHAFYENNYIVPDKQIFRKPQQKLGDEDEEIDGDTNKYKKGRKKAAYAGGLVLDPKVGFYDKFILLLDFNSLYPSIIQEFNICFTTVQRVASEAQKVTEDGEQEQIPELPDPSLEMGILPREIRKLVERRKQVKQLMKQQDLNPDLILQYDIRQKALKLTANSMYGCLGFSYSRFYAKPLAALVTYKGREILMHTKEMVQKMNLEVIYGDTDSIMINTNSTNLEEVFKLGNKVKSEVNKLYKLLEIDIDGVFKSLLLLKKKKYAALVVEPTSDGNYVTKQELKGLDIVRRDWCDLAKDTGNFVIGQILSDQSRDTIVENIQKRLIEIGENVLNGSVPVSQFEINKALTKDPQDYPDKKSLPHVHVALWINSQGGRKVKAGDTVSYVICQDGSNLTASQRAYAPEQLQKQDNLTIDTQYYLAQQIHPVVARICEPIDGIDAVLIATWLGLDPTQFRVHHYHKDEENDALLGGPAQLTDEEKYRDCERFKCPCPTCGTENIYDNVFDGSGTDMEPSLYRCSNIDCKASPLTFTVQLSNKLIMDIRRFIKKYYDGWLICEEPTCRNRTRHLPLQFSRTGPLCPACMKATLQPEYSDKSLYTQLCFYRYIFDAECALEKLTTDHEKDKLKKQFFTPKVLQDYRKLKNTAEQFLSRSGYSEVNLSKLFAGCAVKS

T1 sequence (O00411 whole entry): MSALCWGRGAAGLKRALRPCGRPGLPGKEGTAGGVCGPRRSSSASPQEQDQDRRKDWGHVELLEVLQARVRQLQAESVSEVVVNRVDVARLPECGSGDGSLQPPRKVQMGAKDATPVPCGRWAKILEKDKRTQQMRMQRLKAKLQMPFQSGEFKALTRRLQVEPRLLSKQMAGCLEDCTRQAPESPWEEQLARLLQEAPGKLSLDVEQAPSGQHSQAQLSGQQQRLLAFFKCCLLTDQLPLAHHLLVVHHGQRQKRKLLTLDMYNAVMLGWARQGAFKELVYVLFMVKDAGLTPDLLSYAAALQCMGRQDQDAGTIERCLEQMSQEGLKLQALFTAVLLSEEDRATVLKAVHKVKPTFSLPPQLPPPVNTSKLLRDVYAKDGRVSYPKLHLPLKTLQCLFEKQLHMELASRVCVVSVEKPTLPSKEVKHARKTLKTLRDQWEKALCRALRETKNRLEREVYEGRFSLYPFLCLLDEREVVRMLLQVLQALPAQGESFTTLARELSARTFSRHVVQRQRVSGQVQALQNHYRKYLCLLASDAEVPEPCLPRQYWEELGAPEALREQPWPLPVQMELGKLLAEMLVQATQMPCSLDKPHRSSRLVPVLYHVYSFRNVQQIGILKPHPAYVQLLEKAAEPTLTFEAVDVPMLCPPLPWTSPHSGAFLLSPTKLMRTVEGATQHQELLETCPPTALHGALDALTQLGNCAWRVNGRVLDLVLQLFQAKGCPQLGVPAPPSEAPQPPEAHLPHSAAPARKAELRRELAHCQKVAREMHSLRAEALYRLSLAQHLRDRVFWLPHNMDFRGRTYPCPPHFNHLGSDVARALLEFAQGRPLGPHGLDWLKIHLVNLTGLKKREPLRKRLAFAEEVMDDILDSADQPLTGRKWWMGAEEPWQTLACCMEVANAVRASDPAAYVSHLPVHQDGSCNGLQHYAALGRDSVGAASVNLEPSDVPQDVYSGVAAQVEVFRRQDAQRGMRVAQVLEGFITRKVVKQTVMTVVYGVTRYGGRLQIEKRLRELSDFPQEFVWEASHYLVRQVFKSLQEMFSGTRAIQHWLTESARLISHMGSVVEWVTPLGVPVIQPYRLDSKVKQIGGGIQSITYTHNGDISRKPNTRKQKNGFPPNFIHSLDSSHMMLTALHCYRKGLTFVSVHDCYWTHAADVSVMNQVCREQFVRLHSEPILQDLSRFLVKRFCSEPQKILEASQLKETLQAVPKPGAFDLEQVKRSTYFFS

SMILES	CC50 [1]	EC50 (Ebolavirus [2])	EC50 (Ebolavirus [3])	EC50 (Ebolavirus [4])	half-life at 2 µM [5]	logD at 0.5 h [6]	IC50 [7]	IC50 [8]	Drug metabolism [9]	IC50 [10]	Activity [11]	IC50 [12]	Drug metabolism (Macrophage)	IC50 [13]	Drug metabolism [14]	IC50 (DNA polymerase beta)	Activity [15]	Drug metabolism (PBMC)	IC50 [16]
CCC(CC)COC(=O)[C@@H](C)NP(=O)(OC[C@H]1O[C@@](C#N)(c2ccc3c(N)ncnn23)[C@H](O)[C@@H]1O)Oc1ccccc1 (stereo partly specified)	42 µM	0.729 µM	0.518 µM	0.55 µM	26.4 h	2.1													
N#C[C@@]1(c2ccc3c(N)ncnn23)O[C@H](COP(=O)(O)OP(=O)(O)OP(=O)(O)O)[C@@H](O)[C@H]1O [RDV-TP]							> 200 µM	1.1 µM	Metabolite_Detected	> 200 µM	6%	> 200 µM	Metabolite_Detected	5 µM	Metabolite_Detected	> 200 µM	0%	Metabolite_Detected	> 200 µM
CC(C)OC(=O)[C@H](C)N[P@@](=O)(OC[C@H]1O[C@@](C#N)(c2ccc3c(N)ncnn23)[C@H](O)[C@@H]1O)Oc1ccccc1	21 µM	0.297 µM	0.367 µM	1.84 µM	26 h	1.1													
C[C@H](NP(=O)(OC[C@H]1O[C@@](C#N)(c2ccc3c(N)ncnn23)[C@H](O)[C@@H]1O)Oc1ccccc1)C(=O)OC1CCC1 (stereo partly specified)	6 µM		0.088 µM	0.42 µM	13.6 h	1.1													
CCOC(=O)[C@@H](NP(=O)(OC[C@H]1O[C@@](C#N)(c2ccc3c(N)ncnn23)[C@H](O)[C@@H]1O)Oc1ccccc1)C(C)C (stereo partly specified)	> 100 µM		3.15 µM	7.04 µM	26.4 h	1.2													
C[C@H](NP(=O)(OC[C@H]1O[C@@](C#N)(c2ccc3c(N)ncnn23)[C@H](O)[C@@H]1O)Oc1ccccc1)C(=O)OC1CCCC1 (stereo partly specified)	8.8 µM	0.12 µM	0.16 µM	0.633 µM	26.3 h	1.3													
